Source: patent US20250059188A1, “ARYLSULPHONAMIDE COMPOUNDS” (Anaxis Pharma Pty Ltd, priority 2021, published 2025)

How the values were obtained:
[1] = tested on: Immortalised Mouse Dermal Fibroblasts (MDFs); test: Inhibition of TSI induced necroptosis in mouse dermal fibroblasts (CellTitre-Glo); settings: Mus musculus, Fibroblast, 3 h, MDF cells, TSI cocktail (TNF, Smac mimetic, IDN-6556), read-out: Inhibition of TSI-induced necroptosis (IC50 cell-based assay) in MDF
Procedure, shortened: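 Immortalised MDFs (2200 cells/well, DMEM + 7.4% FBS) pretreated 30 min with compound (36 μM top, 1:3, 10 points, 0.3% DMSO), then 3 h with TNF 100 ng/ml, Smac mimetic 500 nM and IDN-6556 10 μM at 37 °C. Viability by CellTiter-Glo luminescence; IC50 from 4-parameter logistic fit.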

U937 cells = test: Counter screen: U937 cell viability without TSQ cocktail (off-target effect); design: species or system human; settings: Homo sapiens, U-937, compound without TSQ cocktail, read-out: Off-target effect (IC50 cell-based assay)
Procedure, shortened: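 Off-target viability counter screen: compounds titrated 36 μM down 1:3 over 10 points (0.3% DMSO) on 20,000 U937 cells/well, no TNF/Smac mimetic/Q-VD-OPh added, 48 h incubation. ATP-based CellTiter-Glo luminescence, four-parameter logistic IC50.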

Row | Structure (SMILES) | IC50 [1] [nM] | IC50 (U937 cells) [nM]
1 | C[C@H](Oc1cc(-c2nn(C)c3c(C#CC4CCN(C)CC4)cnc(N)c23)ccc1NS(=O)(=O)C(F)F)c1ccc(F)cc1 [Compound 80, (S)—N-(4-(4-amino-1-methyl-7-((1-methylpiperidin-4-yl)ethynyl)-1H-pyrazolo[4,3-c]pyridin-3-yl)-2-(1-(4-fluorophenyl)ethoxy)phenyl)-1,1-difluoromethanesulfonamide] | 100 to 1000 | > 10000
2 | C[C@H](Oc1cc(-c2nn(C)c3c(-c4cnn(C5CCN(C)C(C)(C)C5)c4)cnc(N)c23)ccc1NS(=O)(=O)C(F)F)c1ccc(F)cc1 (single isomer, unassigned) [Compound 154, N-(4-(4-amino-1-methyl-7-(1-((R*)-1,2,2-trimethylpiperidin-4-yl)-1H-pyrazol-4-yl)-1H-pyrazolo[4,3-c]pyridin-3-yl)-2-((S)-1-(4-fluorophenyl)ethoxy)phenyl)-1,1-difluoromethanesulfonamide] | < 100 | > 10000
